Experimental data from ChEMBL document CHEMBL1150080, “Asimilobin and cis- and trans-murisolinones, novel bioactive Annonaceous acetogenins from the seeds of Asimina triloba” (J Nat Prod, 1995).
Values after ≈ are worked out from the molar mass of the structure shown.

What was measured:
A549 = test: Cytotoxicity against human A549 cells after 7 days by MTT assay; type: functional; settings: A549, 168 h, read-out: ED50 (the source's name)
HT-29 = test: Cytotoxicity against human HT-29 cells after 7 days by MTT assay; type: functional; settings: HT-29, 168 h, read-out: ED50 (the source's name)
MCF7 = test: Cytotoxicity against human MCF7 cells after 7 days by MTT assay; type: functional; settings: MCF7, 168 h, read-out: ED50 (the source's name)
PC-3 = test: Cytotoxicity against human PC3 cells after 7 days by MTT assay; type: functional; settings: PC-3, 168 h, read-out: ED50 (the source's name)
MIA PaCa-2 = test: Cytotoxicity against human MIAPaCa2 cells after 7 days by MTT assay; type: functional; settings: MIA PaCa-2, 168 h, read-out: ED50 (the source's name)
A498 = test: Cytotoxicity against human A498 cells after 7 days by MTT assay; type: functional; settings: A498, 168 h, read-out: ED50 (the source's name)
[1] = Toxicity to brine shrimp larvae; type: organism-based; settings: artemia, in vivo

Row | SMILES | EC50 (A549) | EC50 (HT-29) | EC50 (MCF7) | EC50 (PC-3) | EC50 (MIA PaCa-2) | EC50 (A498) | LC50 [1]
1 | CCCCCCCCCCC[C@@H](O)[C@H]1CC[C@H]([C@H](O)CCCCCCCCCC[C@@H]2C[C@H](CC(C)=O)C(=O)O2)O1 | 0.148 µg/mL (≈ 0.261 µM) | 0.754 µg/mL (≈ 1.33 µM) | 0.0793 µg/mL (≈ 0.14 µM) | 1.48 µg/mL (≈ 2.61 µM) | 0.107 µg/mL (≈ 0.189 µM) | 3.44 µg/mL (≈ 6.07 µM) | 12.3 µg/mL (≈ 21.7 µM)
2 | CCCCCCCCCCC[C@@H](O)[C@H]1CC[C@H]([C@H](O)CCCCCCCCCC[C@H]2C[C@H](CC(C)=O)C(=O)O2)O1 | 0.0276 µg/mL (≈ 0.0487 µM) | 1.16 µg/mL (≈ 2.05 µM) | 0.0296 µg/mL (≈ 0.0522 µM) | 0.214 µg/mL (≈ 0.378 µM) | 0.0059 µg/mL (≈ 0.0104 µM) | 1.23 µg/mL (≈ 2.17 µM) | 18.2 µg/mL (≈ 32.1 µM)
3 | CCCCCCCCCCCCCC[C@H](O)[C@@H]1CC[C@@H]([C@@H]2CC[C@@H](CCCCC[C@@H](O)CC3=C[C@H](C)OC3=O)O2)O1 [ASIMILOBIN] | 0.0301 µg/mL (≈ 0.052 µM) | 0.063 µg/mL (≈ 0.109 µM) | 2.14 µg/mL (≈ 3.7 µM) | 1.47 µg/mL (≈ 2.54 µM) | 0.104 µg/mL (≈ 0.18 µM) | 0.0226 µg/mL (≈ 0.039 µM) | 1.06 µg/mL (≈ 1.83 µM)
4 | COc1cccc2c1C(=O)c1c(O)c3c(c(O)c1C2=O)C[C@@](O)(C(=O)CO)C[C@@H]3O[C@H]1C[C@H](N)[C@H](O)[C@H](C)O1 [DOXORUBICIN] | 0.00101 µg/mL (≈ 0.00186 µM) | 0.0262 µg/mL (≈ 0.0482 µM) | 0.0103 µg/mL (≈ 0.019 µM) | 0.0196 µg/mL (≈ 0.0361 µM) | 0.00132 µg/mL (≈ 0.00243 µM) | – | –
